Data reported in patent US9440969B2, “Compounds and methods for kinase modulation, and indications therefor” (PLEXXIKON INC., priority 2009, dated 2016).

Assays:
B-Raf = B-Raf (Homo sapiens, UniProt P15056); assay: B-Raf kinase activity assay (AlphaScreen, biotin-MEK1 substrate); conditions: 100 μM ATP, 100 nM biotin-MEK1, 45 minutes at room temperature; read-out: Biochemical activity (IC50 μM) B-Raf
Outline: (§1)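 Each Raf enzyme (0.1 ng) phosphorylates 100 nM biotin-MEK1 in pH 7.0 HEPES with Mg2+/Mn2+, 100 μM ATP final, 45 min at room temperature. Phospho-MEK1/2 antibody with AlphaScreen beads is read after 3 h. IC50 comes from an 8-point dilution series.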

B-Raf V600E = B-Raf V600E (Homo sapiens, UniProt P15056, V600E); assay: B-Raf V600E kinase activity assay (AlphaScreen, biotin-MEK1 substrate); conditions: 100 μM ATP, 100 nM biotin-MEK1, 45 minutes at room temperature, read-out: Biochemical activity (IC50 μM) V600E
B-Raf V600E, sequence (P15056 whole entry V600E): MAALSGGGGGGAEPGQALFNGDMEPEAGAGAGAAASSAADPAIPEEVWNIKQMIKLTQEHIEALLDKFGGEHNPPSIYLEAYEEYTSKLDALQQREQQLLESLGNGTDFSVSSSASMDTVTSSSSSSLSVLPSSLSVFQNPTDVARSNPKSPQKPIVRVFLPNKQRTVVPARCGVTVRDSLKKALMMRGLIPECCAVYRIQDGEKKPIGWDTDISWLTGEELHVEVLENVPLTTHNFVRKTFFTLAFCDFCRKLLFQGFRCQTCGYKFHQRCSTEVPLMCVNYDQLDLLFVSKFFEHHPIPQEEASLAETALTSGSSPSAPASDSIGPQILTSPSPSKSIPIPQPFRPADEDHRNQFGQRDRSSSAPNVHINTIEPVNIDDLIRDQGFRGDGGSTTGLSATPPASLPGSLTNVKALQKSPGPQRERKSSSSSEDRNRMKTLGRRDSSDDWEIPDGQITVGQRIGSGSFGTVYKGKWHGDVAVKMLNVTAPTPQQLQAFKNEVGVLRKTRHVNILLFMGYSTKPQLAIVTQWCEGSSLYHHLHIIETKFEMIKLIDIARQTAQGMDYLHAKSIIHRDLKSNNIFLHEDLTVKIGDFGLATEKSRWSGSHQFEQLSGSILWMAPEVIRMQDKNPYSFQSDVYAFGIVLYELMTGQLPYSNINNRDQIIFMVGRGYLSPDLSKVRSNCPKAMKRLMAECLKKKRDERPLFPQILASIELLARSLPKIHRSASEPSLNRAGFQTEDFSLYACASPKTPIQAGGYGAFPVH
Outline: as §1

c-Raf-1 = c-Raf-1 (Homo sapiens, UniProt P04049); assay: c-Raf-1 kinase activity assay (AlphaScreen, biotin-MEK1 substrate); conditions: 100 μM ATP, 100 nM biotin-MEK1, 45 minutes at room temperature; read-out: Biochemical activity (IC50 μM) c-Raf-1
c-Raf-1, sequence (P04049 whole entry Y340D/Y341D, form open): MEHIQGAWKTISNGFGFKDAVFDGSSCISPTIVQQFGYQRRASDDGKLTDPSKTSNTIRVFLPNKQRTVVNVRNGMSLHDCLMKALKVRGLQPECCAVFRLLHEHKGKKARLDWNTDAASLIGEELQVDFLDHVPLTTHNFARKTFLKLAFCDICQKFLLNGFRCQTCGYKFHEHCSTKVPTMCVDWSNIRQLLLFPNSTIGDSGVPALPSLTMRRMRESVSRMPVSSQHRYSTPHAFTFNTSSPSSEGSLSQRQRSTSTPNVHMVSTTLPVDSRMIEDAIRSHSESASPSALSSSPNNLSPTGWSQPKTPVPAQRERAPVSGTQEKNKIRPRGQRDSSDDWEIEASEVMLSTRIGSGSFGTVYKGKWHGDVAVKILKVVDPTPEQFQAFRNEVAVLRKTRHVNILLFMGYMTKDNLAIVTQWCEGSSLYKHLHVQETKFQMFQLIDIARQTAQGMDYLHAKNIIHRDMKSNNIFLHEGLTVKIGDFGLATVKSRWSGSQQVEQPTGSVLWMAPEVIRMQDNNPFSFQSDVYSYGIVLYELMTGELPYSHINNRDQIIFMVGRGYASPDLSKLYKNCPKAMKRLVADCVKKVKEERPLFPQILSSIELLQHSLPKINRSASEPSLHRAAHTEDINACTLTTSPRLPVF
Procedure: Assays for biochemical and cell based activity are known in the art, for example, as described in PCT publication WO 2007/002433, the disclosure of which is hereby incorporated by reference as it relates to such assays. For example, the biochemical activity IC50 values are determined with respect to inhibition of B-Raf kinase activity, c-Raf-1 kinase activity, or B-Raf V600E kinase activity, where inhibition of phosphorylation of a peptide substrate is measured as a function of compound concentration. Compounds to be tested are diluted in dimethyl sulfoxide to a concentration of 0.1 mM. These are serially diluted 15 μL into 30 μL of dimethyl sulfoxide seven times in 96 well plates for a total of 8 dilution points, and for each dilution point 1 μL is added to a well of an assay plate. Plates are prepared such that each well in a 384 well plate contains 1 μL of compound in 10 μL, volume with 0.1 ng Raf enzyme (i.e. any of B-Raf, c-Raf-1 or B-Raf V600E, Upstate Biotechnology or prepared by methods known to one of skill in the art), 50 mM HEPES, pH 7.0, 50 mM NaCl, 2 mM MgCl2, 1 mM MnCl2, 0.01% Tween-20, 1 mM DTT, and 100 nM biotin-MEK1 as substrate. The reaction is started with addition of 10 μL of 200 μM ATP (i.e. final 100 μM ATP). After incubation of the kinase reaction for 45 minutes at room temperature, 5 μL/well of Stop Solution is added (25 mM Hepes pH 7.5, 100 mM EDTA, 0.01% BSA with donor beads (Streptavidin coated beads, Perkin Elmer), acceptor beads (Protein A coated, Perkin Elmer), and anti phosphor MEK1/2 antibody (CellSignal), each at final concentration 10 μg/mL). The plates are incubated for 3 hours at room temperature and read on Envision reader (Perkin Elmer). Phosphorylation of Mek1 results in binding of the anti-phosphor-MEK1/2 antibody and association of the donor and acceptor beads such that signal correlates with kinase activity. The signal vs. compound concentration is used to determine the IC50.

[1] = system: COLO205 colon adenocarcinoma (B-Raf V600E mutation); assay: COLO205 cell growth inhibition (ATPlite luminescence); format: cell-based; conditions: Homo sapiens, COLO 205, 72 h, COLO205 cells, incubated 3 days with compound
Procedure: Compounds are assessed in a variety of cell based assays. For example human cell lines with B-Raf V600E mutation (A375 melanoma, SKMEL3 melanoma, and COLO205 colon adenocarcinoma), as well as tumorigenic cell lines with wild-type B-RAF (SW620 colon adenocarcinoma) or with Ras mutations (SKMEL2 melanoma and IPC298 melanoma). Similar assays may be used to assess additional tumorigenic cell lines with Ras mutations, including, but not limited to, M202, M207, M243, M244, M296, S117, HCT116, HCT15, DLD1, MiaPaCa, A549, NCI-H23, NCI-H460, HOP62, MDA-MB231, Hs-578T, HL60, MOLT-4, and CCRF-CEM.
On day 1, cells are counted, then centrifuged in a conical tube for 5 minutes at 1000 rpm. The supernatant is removed and cells are re-suspended as follows: • SW620 (ATCC catalog #CCL-27): resuspend in Leibovitz's L-15 medium, 2 mM L-glutamine, 10% fetal bovine serum to 6×10^4 cells/mL. • A375 (ATCC catalog #CRL-1619): resuspend in Dulbecco's modified Eagle's medium, 4 mM L-glutamine, 4.5 g/L D-glucose, 10% fetal bovine serum to 6×10^4 cells/mL. • COLO205 (ATCC catalog #CCL-222): resuspend in RPMI 1640, 2 mM L-glutamine, 1.5 g/L sodium bicarbonate, 4.5 g/L D-glucose, 10 mM HEPES, 1.0 mM sodium pyruvate, 10% fetal bovine serum to 6×10^4 cells/mL. • SKMEL2 (ATCC catalog #HTB-68): resuspend in Minimum Eagle essential medium, 2 mM L-glutamine, 1.5 g/L sodium bicarbonate, 0.1 mM non-essential amino acids, 1.0 mM sodium pyruvate, 10% fetal bovine serum to 6×10^4 cells/mL. • SKMEL3 (ATCC catalog #HTB-69): resuspend in McCoy's 5A medium, 1.5 mM L-glutamine, 15% fetal bovine serum to 6×10^4 cells/mL. • IPC298 (DSMZ catalog #ACC 251): resuspend in RPMI 1640, 2 mM L-glutamine, 10% fetal bovine serum to 6×10^4 cells/mL.
The cells are plated, 50 μL in each well of a 96-well dish (Corning 3610) and incubated at 37° C. in 5% CO2 overnight, cells plated to a final concentration of cells as follows:
On day 2, compound at a maximum concentration of 5 mM is serially diluted 1:3 (e.g. 10 μL with 30 μL dimethyl sulfoxide) for a total of 8 point titration with DMSO as a control. A 1 μL aliquot of each dilution point and control is added to 249 μL growth media and 50 μL is added to a well containing cells, providing 10 μM compound at the maximum concentration point. The cells are incubated for 3 days at 37° C. in 5% CO2.
On day 5, ATPlite 1 step Luminescence Assay System (Perkin Elmer #6016739) is brought to room temperature along with the cell cultures. ATPlite is added 25 μL to each well, shake for 2 minutes, and the cells are incubated at room temperature for 10 minutes, then luminescence is read on Safire reader. The measured luminescence correlates directly with cell number, such that the reading as a function of compound concentration is used to determine the IC50 value.
It is understood that the results of these assays may vary as assay conditions are varied. Inhibition levels determined under the conditions described herein represent a relative activity for the compounds tested under the specific conditions employed. The cell based assays are likely to show variability due to the complexity of the system and the sensitivity thereof to any changes in the assay conditions. […] Results for compounds that are tested and show substantially no inhibition below the highest tested concentration are represented as “-” in the tables below. In some instances, the compounds were not tested in all of the assays, or assay results were not valid, as indicated by NA in the tables below.

B-Raf, sequence (P15056 whole entry): as the sequence (P15056 whole entry V600E) above, with E600V counted along it

Structure (SMILES) | IC50 (B-Raf) | IC50 (B-Raf V600E) | IC50 (c-Raf-1) | IC50 [1]
CCCS(=O)(=O)Nc1ccc(F)c(C(=O)c2c[nH]c3ncc(-c4ccccn4)cc23)c1F [P-1401, Propane-1-sulfonic acid [2,4-difluoro-3-(5-pyridin-2-yl-1H-pyrrolo[2,3-b]pyridine-3-carbonyl)-phenyl]-amide] | < 0.1 µM | < 0.1 µM | < 0.1 µM | > 1 µM
CCCS(=O)(=O)Nc1ccc(F)c(C(=O)c2c[nH]c3ncc(-c4ccc(-c5cccnc5)s4)cc23)c1F [P-1200, Propane-1-sulfonic acid {2,4-difluoro-3-[5-(5-pyridin-3-yl-thiophen-2-yl)-1H-pyrrolo[2,3-b]pyridine-3-carbonyl]-phenyl}-amide] | < 0.1 µM | < 0.1 µM | < 0.1 µM | > 1 µM
CCCS(=O)(=O)Nc1ccc(F)c(C(=O)c2c[nH]c3ncc(-c4ccc5[nH]nc(C)c5c4)cc23)c1F [P-0024, Propane-1-sulfonic acid {2,4-difluoro-3-[5-(3-methyl-1H-indazol-5-yl)-1H-pyrrolo[2,3-b]pyridine-3-carbonyl]-phenyl}-amide] | < 0.1 µM | < 0.1 µM | < 0.1 µM | < 1 µM
CCCS(=O)(=O)Nc1ccc(F)c(C(=O)c2c[nH]c3ncc(-c4cnc(-n5ccnc5)cn4)cc23)c1F [P-1602, Propane-1-sulfonic acid {2,4-difluoro-3-[5-(5-imidazol-1-yl-pyrazin-2-yl)-1H-pyrrolo[2,3-b]pyridine-3-carbonyl]-phenyl}-amide] | < 0.1 µM | < 0.1 µM | < 0.1 µM | < 1 µM
CCCS(=O)(=O)Nc1ccc(F)c(C(=O)c2c[nH]c3ncc(-c4ccc5c(c4)C(=O)NC5)cc23)c1F [P-1702, Propane-1-sulfonic acid {2,4-difluoro-3-[5-(3-oxo-2,3-dihydro-1H-isoindol-5-yl)-1H-pyrrolo[2,3-b]pyridine-3-carbonyl]-phenyl}-amide] | < 0.1 µM | < 0.1 µM | < 0.1 µM | < 1 µM
CCCS(=O)(=O)Nc1ccc(F)c(C(=O)c2c[nH]c3ncc(-c4cn5ccccc5n4)cc23)c1F [P-0021, Propane-1-sulfonic acid [2,4-difluoro-3-(5-imidazo[1,2-a]pyridin-2-yl-1H-pyrrolo[2,3-b]pyridine-3-carbonyl)-phenyl]-amide] | < 0.1 µM | < 0.1 µM | < 0.1 µM | < 1 µM
CCCS(=O)(=O)Nc1ccc(F)c(C(=O)c2c[nH]c3ncc(-c4ccc(S(N)(=O)=O)s4)cc23)c1F [P-1202, 5-{3-[2,6-Difluoro-3-(propane-1-sulfonylamino)-benzoyl]-1H-pyrrolo[2,3-b]pyridin-5-yl}-thiophene-2-sulfonic acid amide] | < 0.1 µM | < 0.1 µM | < 0.1 µM | < 1 µM
CCCS(=O)(=O)Nc1ccc(F)c(C(=O)c2c[nH]c3ncc(-c4ccc5c(c4)CNC5=O)cc23)c1F [P-1701, Propane-1-sulfonic acid {2,4-difluoro-3-[5-(1-oxo-2,3-dihydro-1H-isoindol-5-yl)-1H-pyrrolo[2,3-b]pyridine-3-carbonyl]-phenyl}-amide] | < 0.1 µM | < 0.1 µM | < 0.1 µM | < 1 µM
CCCS(=O)(=O)Nc1ccc(F)c(C(=O)c2c[nH]c3ncc(-c4ccc(-c5cc[nH]n5)s4)cc23)c1F [P-1201, Propane-1-sulfonic acid (2,4-difluoro-3-{5-[5-(1H-pyrazol-3-yl)-thiophen-2-yl]-1H-pyrrolo[2,3-b]pyridine-3-carbonyl}-phenyl)-amide] | < 0.1 µM | < 0.1 µM | < 0.1 µM | < 1 µM
CCCS(=O)(=O)Nc1ccc(F)c(C(=O)c2c[nH]c3ncc(-c4cccc5[nH]ncc45)cc23)c1F [P-0009, Propane-1-sulfonic acid {2,4-difluoro-3-[5-(1H-indazol-4-yl)-1H-pyrrolo[2,3-b]pyridine-3-carbonyl]-phenyl}-amide] | < 1 µM | < 1 µM | < 1 µM | < 1 µM
CCCS(=O)(=O)Nc1ccc(F)c(C(=O)c2c[nH]c3ncc(-c4cnc(-n5ccnc5C)s4)cc23)c1F [P-1105, Propane-1-sulfonic acid (2,4-difluoro-3-{5-[2-(2-methyl-imidazol-1-yl)-thiazol-5-yl]-1H-pyrrolo[2,3-b]pyridine-3-carbonyl}-phenyl)-amide] | < 0.1 µM | < 0.1 µM | < 0.1 µM | < 1 µM
CCCS(=O)(=O)Nc1ccc(F)c(C(=O)c2c[nH]c3ncc(-c4ccc(Cl)c(C(N)=O)c4)cc23)c1F [P-1700, 2-Chloro-5-{3-[2,6-difluoro-3-(propane-1-sulfonylamino)-benzoyl]-1H-pyrrolo[2,3-b]pyridin-5-yl}-benzamide] | < 0.1 µM | < 0.1 µM | < 0.1 µM | < 1 µM
CCCS(=O)(=O)Nc1ccc(F)c(C(=O)c2c[nH]c3ncc(C(=O)Nc4cccnc4)cc23)c1F [P-1801, 3-[2,6-Difluoro-3-(propane-1-sulfonylamino)-benzoyl]-1H-pyrrolo[2,3-b]pyridine-5-carboxylic acid pyridin-3-ylamide] | < 0.1 µM | < 0.1 µM | < 0.1 µM | > 1 µM
